Results reported in patent publication US20080280974A1, “Spiro compounds for treatment of inflammatory disorders” (priority 2007, published 2008).

What was measured:
[1] = test system: Balb/CJ mice, ovalbumin-sensitized and challenged; experiment: Mouse model of asthma: methacholine-induced airway reactivity (Penh) in ovalbumin-sensitized mice; assay type: in vivo; conditions: po, 768 h, 50 mg/kg p.o., days 26-32, % inhibition of the PenH vs McH dose AUC compared with vehicle control, day 32, read-out: Reduction of Penh AUC at 50 mg/kg p.o.
Experimental: Protocol for Testing Compounds in a Mouse Model of Asthma
Male 5-6 week old Balb/CJ mice were obtained from Jackson Laboratories (Bar Harbor, Me.). All experimental animals were used in accordance to Institutional Animal Care and Use Committee of AtheroGenics, Inc. Mice were sensitized by administering an intraperitoneal injection of 20 μg of ovalbumin (Calbiochem, La Jolla, Calif.) adsorbed in 2 mg of alum (Imject Alum; Pierce, Rockford, Ill.) on day 0 and 14. A group of mice received saline and served as negative control animals. The mice were challenged by aerosol exposure to ovalbumin (1% [wt/vol]) for 25 minutes on 3 consecutive days (days 28, 29, and 30) in a plexiglas exposure chamber coupled to an Aeroneb nebulizer (Buxco Electronics, Wilmington, N.C.). Experimental compounds were dissolved in Glycofurol/PEG 300/Tween (35%/55%/10%) (Sigma-aldrich; Milwaukee, Wis.). Animals were dosed orally with either test compound or vehicle (6 ml/kg dosing volume) on days 26-32 of study. Compound or vehicle was administered 2 hour before the aerosol challenge on days 28, 29, and 30 and 1 hour before airway reactivity measurement on day 32.
Methacholine-induced airway reactivity was assessed on day 32. Methacholine was administered in increasing concentrations ([…], 1.5, 3, 6, 12, 25, and 50 mg/ml) to unrestrained mice. Increases in airway resistance to Methacholine were determined as enhanced pause, (Penh) values, during and after the exposure (6-minute total analysis time). Mice were then humanely euthanized with an overdose of ketamine/xylazine and plasma samples collected for determination of drug levels. The data is presented as the % inhibition of the PenH vs McH dose AUC compared with the vehicle control.
Data analysis was conducting using the software package, JMP (SAS Institute Inc; Cary, N.C.). The Dunnett's multiple comparison test was used to compare treatment group means to the vehicle control group. P values of less than 0.05 were considered statistically significant. The data (Table 1) are presented as the % inhibition of the PenH vs McH dose AUC compared with the vehicle control.

[2] = test system: IL-6 secreted by human pulmonary artery endothelial cells (HPAEC); experiment: In vitro IL-6 assay: TNF-alpha-stimulated IL-6 secretion by HPAEC, ELISA; assay type: cell-based; conditions: Endothelial cell, 10 microM compound, 20 hrs preincubation, then 2 ng/ml TNF-alpha for 4 hrs
Experimental: (§1) In Vitro IL-6 and IL-8 Assays
(§2) Compounds at dosing concentrations (with 0.2% DMSO vehicle) were incubated in EGM2MV cell media at 37° C. for overnight, added to 96-well plates seeded with confluent human pulmonary artery endothelial cells (HPAEC) for 20 hrs at 37° C., and then replaced with fresh dosing media containing 2 ng/ml tumor necrosis factor alpha for additional 4 hrs at 37° C. Afterwards, media was removed and used in ELISA assay to quantify the amount of IL-6 and IL-8 secreted by the cells using R&D Systems Duoset ELISA kits.

[3] = test system: IL-8 secreted by human pulmonary artery endothelial cells (HPAEC); experiment: In vitro IL-8 assay: TNF-alpha-stimulated IL-8 secretion by HPAEC, ELISA; assay type: cell-based; conditions: Endothelial cell, 10 microM compound, 20 hrs preincubation, then 2 ng/ml TNF-alpha for 4 hrs
Experimental: as §1, §2

With `Cc1cc2c(cc1O)C(C)(C)CC1(CC(C)(C)c3cc(O)c(C)cc3O1)O2` [Example 27, (−)-(S)-6,6′-dihydroxy-4,4,4′,4′,7,7′-hexamethyl-2,2′-spirobichroman] as the molecule, how does the inhibition in vivo at 50 mg/kg [1] read?
The inhibition in vivo at 50 mg/kg was greater than 40%.

And the melting point?
Its melting point is 165 to 166 °C.

What does the source list for `Cc1cc2c(cc1OCC(=O)O)C(C)(C)CC1(CC(C)(C)c3cc(OCC(=O)O)c(C)cc3O1)O2` (racemic) [Example 21, (±)-[(4,4,4′,4′,7,7′-Hexamethyl-2,2′-spirobichroman-6,6′-diyl)bis(oxy)]-bis-acetic acid]?
inhibition at 10 µM [2]: 25%; inhibition in vivo at 50 mg/kg [1]: 20 to 40%; inhibition at 10 µM [3]: 19%; melting point: > 260 °C

For `Cc1cc2c(cc1O)C(C)(C)C[C@]1(CC(C)(C)c3cc(OC(C)(C)C(=O)O)c(C)cc3O1)O2` (racemic) [Example 9, (±)-(R)-(6′-Hydroxy-4,4,4′,4′,7,7′-hexamethyl-2,2′-spirobichroman-6-yloxy)-dimethylacetic acid], which inhibition in vivo at 50 mg/kg [1] is on record?
The inhibition in vivo at 50 mg/kg was greater than 40%.

Which inhibition at 10 µM [2] does the source give for `Cc1cc2c(cc1O)C(C)(C)CC1(CC(C)(C)c3cc(OC(C)(C)C(=O)O)c(C)cc3O1)O2` (racemic) [Example 8, (±)-(6′-Hydroxy-4,4,4′,4′,7,7′-hexamethyl-2,2′-spirobichroman-6-yloxy)-dimethylacetic acid] here?
The inhibition at 10 µM was 42%.

And the inhibition in vivo at 50 mg/kg [1]?
Its inhibition in vivo at 50 mg/kg is greater than 40%.

What about the inhibition at 10 µM [3] of the same molecule?
The inhibition at 10 µM was 25%.

Which inhibition in vivo at 50 mg/kg [1] does the source give for `Cc1cc2c(cc1O)C(C)(C)CC1(CC(C)(C)c3cc(OC(C)(C)C(=O)O)c(C)cc3O1)O2` (stereo in doubt) [Example 10, (−)-(S)-(6′-Hydroxy-4,4,4′,4′,7,7′-hexamethyl-2,2′-spirobichroman-6-yloxy)-dimethylacetic acid] here?
Its inhibition in vivo at 50 mg/kg is less than 20%.

Which inhibition at 10 µM [2] does the source give for `Cc1cc2c(cc1O)C(C)(C)CC1(CC(C)(C)c3cc(OCCCn4ccnc4)c(C)cc3O1)O2` (racemic) [Example 6, (±)-6′-Hydroxy-6-[3-(1H-imidazol-1-yl)propoxy]-4,4,4′,4′,7,7′-hexamethyl-2,2′-spirobichroman] here?
Its inhibition at 10 µM is 24%.

What about the inhibition at 10 µM [3] of the same molecule?
The inhibition at 10 µM was 5%.

And the melting point?
The melting point was 209 to 211 °C.

With `Cc1cc2c(cc1O)C(C)(C)CC1(CC(C)(C)c3cc(OCC(=O)O[C@@H]4C[C@H](C)CC[C@H]4C(C)(C)c4ccccc4)c(C)cc3O1)O2` (mixture of isomers) [Example 26, (±)-(6′-Hydroxy-4,4,4′,4′,7,7′-hexamethyl-2,2′-spirobichroman-6-yloxy)-acetic acid 5(R)-Methyl-2(S)-(1-methyl-1-phenylethyl)-1(R)-cyclohexyl Ester] as the molecule, how does the melting point read?
Its melting point is 88 to 93 °C.

With `COc1cc2c(cc1C)OC1(CC2(C)C)CC(C)(C)c2cc(OCC(=O)O)c(C)cc2O1` (racemic) [Example 20, (±)-(6′-Methoxy-4,4,4′,4′,7,7′-hexamethyl-2,2′-spirobichroman-6-yloxy)-acetic acid] as the molecule, how does the inhibition in vivo at 50 mg/kg [1] read?
The inhibition in vivo at 50 mg/kg was less than 20%.

And the melting point?
The melting point was 195 to 197 °C.

Which inhibition in vivo at 50 mg/kg [1] does the source give for `Cc1cc2c(cc1O)C(C)(C)CC1(CC(C)(C)c3cc(OCC(N)=O)c(C)cc3O1)O2` (racemic) [Example 14, (±)-(6′-Hydroxy-4,4,4′,4′,7,7′-hexamethyl-2,2′-spirobichroman-6-yloxy)-acetamide] here?
Its inhibition in vivo at 50 mg/kg is less than 20%.

What about the melting point of the same molecule?
The melting point was 220 to 221 °C.

Which inhibition in vivo at 50 mg/kg [1] does the source give for `C=CCc1c(O)c(C)cc2c1C(C)(C)CC1(CC(C)(C)c3c(cc(C)c(O)c3CC=C)O1)O2` (racemic) [Example 23, (±)-6,6′-Dihydroxy-5,5′-diallyl-4,4,4′,4′,7,7′-hexamethyl-2,2′-spirobichroman] here?
The inhibition in vivo at 50 mg/kg was less than 20%.

What about the melting point of the same molecule?
Its melting point is 95 to 97 °C.

With `Cc1cc2c(cc1O)C(C)(C)CC1(CC(C)(C)c3cc(O)c(C)cc3O1)O2` (racemic) [Example 24, (±)-6,6′-Dihydroxy-4,4,4′,4′,7,7′-hexamethyl-2,2′-spirobichroman] as the molecule, how does the inhibition at 10 µM [2] read?
The inhibition at 10 µM was 65%.

And the inhibition in vivo at 50 mg/kg [1]?
The inhibition in vivo at 50 mg/kg was 20 to 40%.

What about the inhibition at 10 µM [3] of the same molecule?
Its inhibition at 10 µM is 51%.

Which melting point does the source give for `Cc1cc2c(cc1O)C(C)(C)CC1(CC(C)(C)c3cc(OCCCCO)c(C)cc3O1)O2` (racemic) here?
Its melting point is 235 to 236 °C.

With `Cc1cc2c(cc1O)C(C)(C)CC1(CC(C)(C)c3cc(OCC(=O)OCc4ccccc4)c(C)cc3O1)O2` (racemic) [Example 25, (±)-(6′-Hydroxy-4,4,4′,4′,7,7′-hexamethyl-2,2′-spirobichroman-6-yloxy)-acetic acid Benzyl Ester] as the molecule, how does the melting point read?
The melting point was 60 to 65 °C.

With `Cc1cc2c(cc1O)C(C)(C)CC1(CC(C)(C)c3cc(OCC(C)(C)O)c(C)cc3O1)O2` (racemic) [Example 19, (±)-6′-Hydroxy-6-(2-hydroxy-2-methylpropoxy)-4,4,4′,4′,7,7′-hexamethyl-2,2′-spirobichroman] as the molecule, how does the inhibition in vivo at 50 mg/kg [1] read?
The inhibition in vivo at 50 mg/kg was less than 20%.

For `C=CCOc1cc2c(cc1C)OC1(CC2(C)C)CC(C)(C)c2cc(OCC=C)c(C)cc2O1` [Example 16, (±)-6,6′-Bisallyloxy-4,4,4′,4′,7,7′-hexamethyl-2,2′-spirobichroman], which melting point is on record?
Its melting point is 98 to 100 °C.

Which results are given for `Cc1cc2c(cc1O)C(C)(C)CC1(CC(C)(C)c3cc(OCCCn4nc(CO)cc4C)c(C)cc3O1)O2` (racemic) [Example 17, (±)-6′-Hydroxy-6-[3-(3-hydroxymethyl-5-methyl-1H-pyrazol-1-yl)propoxy]-4,4,4′,4′,7,7′-hexamethyl-2,2′-spirobichroman]?
inhibition in vivo at 50 mg/kg [1]: 20 to 40%; melting point: 217 to 219 °C

For `Cc1cc(CO)n(CCCOc2cc3c(cc2C)OC2(CC(C)(C)c4cc(O)c(C)cc4O2)CC3(C)C)n1` (racemic) [Example 18, (±)-6′-Hydroxy-6-[3-(5-hydroxymethyl-3-methyl-1H-pyrazol-1-yl)propoxy]-4,4,4′,4′,7,7′-hexamethyl-2,2′-spirobichroman], which inhibition at 10 µM [2] is on record?
The inhibition at 10 µM was 41%.

What about the inhibition at 10 µM [3] of the same molecule?
Its inhibition at 10 µM is 5%.

What about the melting point of the same molecule?
Its melting point is 208 to 210 °C.

With `Cc1cc2c(cc1O)C(C)(C)CC1(CC(C)(C)c3cc(O)c(C)cc3O1)O2` (single isomer, unassigned) [Example 28] as the molecule, how does the inhibition in vivo at 50 mg/kg [1] read?
The inhibition in vivo at 50 mg/kg was 20 to 40%.

Which melting point does the source give for `C=CCOc1cc2c(cc1C)OC1(CC(C)(C)c3cc(O)c(C)cc3O1)CC2(C)C` (racemic) here?
The melting point was 143 to 144 °C.

Which inhibition in vivo at 50 mg/kg [1] does the source give for `C=CCc1c(O)c(C)cc2c1C(C)(C)CC1(CC(C)(C)c3cc(O)c(C)cc3O1)O2` (racemic) [Example 22, (±)-6,6′-Dihydroxy-5-allyl-4,4,4′,4′,7,7′-hexamethyl-2,2′-spirobichroman] here?
The inhibition in vivo at 50 mg/kg was less than 20%.

What about the melting point of the same molecule?
The melting point was 102 to 104 °C.

With `Cc1cc2c(cc1O)C(C)(C)CC1(CC(C)(C)c3cc(OCCCn4cccn4)c(C)cc3O1)O2` (racemic) [Example 4, (±)-6′-Hydroxy-6-[3-(1H-pyrazol-1-yl)propoxy]-4,4,4′,4′,7,7′-hexamethyl-2,2′-spirobichroman] as the molecule, how does the inhibition at 10 µM [2] read?
The inhibition at 10 µM was 44%.

What about the inhibition in vivo at 50 mg/kg [1] of the same molecule?
The inhibition in vivo at 50 mg/kg was less than 20%.

And the inhibition at 10 µM [3]?
The inhibition at 10 µM was 0%.

Which results are given for `Cc1cc2c(cc1O)C(C)(C)CC1(CC(C)(C)c3cc(OC(C)(C)CO)c(C)cc3O1)O2` (racemic) [Example 11, (±)-6-(2-Hydroxy-1,1-dimethyl-ethoxy)-6′-hydroxy-4,4,4′,4′,7,7′-hexamethyl-2,2′-spirobichroman]?
inhibition in vivo at 50 mg/kg [1]: < 20%; melting point: 188 to 189 °C

Which inhibition at 10 µM [2] does the source give for `Cc1cc(C)n(CCOc2cc3c(cc2C)OC2(CC(C)(C)c4cc(O)c(C)cc4O2)CC3(C)C)n1` (racemic) [Example 2, (±)-6′-Hydroxy-6-[2-(3,5-dimethyl-1H-pyrazol-1-yl)ethoxy]-4,4,4′,4′,7,7′-hexamethyl-2,2′-spirobichroman] here?
The inhibition at 10 µM was 9%.

What about the inhibition in vivo at 50 mg/kg [1] of the same molecule?
Its inhibition in vivo at 50 mg/kg is less than 20%.

And the inhibition at 10 µM [3]?
Its inhibition at 10 µM is 12%.
